The target of one assay is T1, Urea transporter 2 (Rattus norvegicus, UniProt Q62668).
T1 sequence (Q62668 whole entry): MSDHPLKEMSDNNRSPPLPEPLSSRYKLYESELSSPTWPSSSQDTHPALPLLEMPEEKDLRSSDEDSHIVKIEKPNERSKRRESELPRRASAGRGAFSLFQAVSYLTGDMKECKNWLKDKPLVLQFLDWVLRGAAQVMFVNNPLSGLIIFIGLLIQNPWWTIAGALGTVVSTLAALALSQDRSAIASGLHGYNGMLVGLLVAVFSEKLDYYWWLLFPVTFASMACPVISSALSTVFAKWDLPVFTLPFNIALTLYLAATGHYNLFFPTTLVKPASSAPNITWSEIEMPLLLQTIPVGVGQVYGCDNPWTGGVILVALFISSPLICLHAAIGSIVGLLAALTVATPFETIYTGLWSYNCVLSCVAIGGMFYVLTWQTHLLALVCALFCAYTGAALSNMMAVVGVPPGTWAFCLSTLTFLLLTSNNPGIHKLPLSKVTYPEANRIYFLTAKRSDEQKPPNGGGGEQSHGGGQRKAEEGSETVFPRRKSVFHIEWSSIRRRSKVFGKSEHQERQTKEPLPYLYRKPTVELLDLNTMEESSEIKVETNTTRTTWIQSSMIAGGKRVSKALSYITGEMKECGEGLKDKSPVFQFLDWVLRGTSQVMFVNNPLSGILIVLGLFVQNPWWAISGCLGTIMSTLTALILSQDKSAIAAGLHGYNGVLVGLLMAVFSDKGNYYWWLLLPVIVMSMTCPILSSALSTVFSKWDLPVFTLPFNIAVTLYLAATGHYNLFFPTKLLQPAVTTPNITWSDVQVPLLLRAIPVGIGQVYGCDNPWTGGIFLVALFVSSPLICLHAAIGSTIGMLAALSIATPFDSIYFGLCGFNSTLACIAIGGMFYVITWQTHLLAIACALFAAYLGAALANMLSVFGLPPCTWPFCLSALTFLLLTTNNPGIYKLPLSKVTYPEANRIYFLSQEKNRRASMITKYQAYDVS
Briefly: UT-A1 Inhibition Assay. How it is done: The urea concentration dependence of UT-A1 inhibition was studied from inhibitor concentration response data (0.3 - 60 µM) using different of urea gradients (200 - 1,600 mM). The kinetics of UT-A1 inhibition was measured by adding inhibitors (3 µM) at different times prior to assay.

In another assay the target is T2, Urea transporter 1 (Rattus norvegicus, UniProt P97689).
T2 sequence (P97689 whole entry): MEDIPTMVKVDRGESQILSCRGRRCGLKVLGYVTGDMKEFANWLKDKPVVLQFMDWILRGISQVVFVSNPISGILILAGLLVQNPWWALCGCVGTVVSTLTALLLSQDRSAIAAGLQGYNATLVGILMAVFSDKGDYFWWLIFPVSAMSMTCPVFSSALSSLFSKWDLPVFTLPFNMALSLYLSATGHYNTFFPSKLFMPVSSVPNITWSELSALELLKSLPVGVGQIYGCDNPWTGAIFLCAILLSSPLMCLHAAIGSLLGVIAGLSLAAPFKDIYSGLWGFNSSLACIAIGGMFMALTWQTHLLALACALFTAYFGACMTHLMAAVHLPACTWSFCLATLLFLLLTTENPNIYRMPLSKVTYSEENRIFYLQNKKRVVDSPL
Kind of assay: UT-B Inhibition Assay. On the procedure:
Erythrocyte suspension (100 µL) was added to each well of a 96-well microplate to which test compounds were added. After 15 min incubation, 20 µL of the erythrocyte suspension was added to each well of a 96-well plate containing 180 µL PBS containing 1% DMSO, followed by vigorous mixing. The absorbance was measured at 710 nm.

As for `COc1ccc(Nc2cc(C(=O)N3CCSCC3)nc3c(OC)cccc23)cc1` [8‐methoxy‐N‐(4‐methoxyphenyl)‐2‐(thiomorpholine‐4‐ carbonyl)quinolin‐4‐amine], the IC50 is 3.5 µM against Urea transporter 2 and 6.2 µM at Urea transporter 1.

With `O=S(=O)(c1ccc(Br)cc1)c1nnn2c1nc(N=S1C=CC=C1)c1sccc12` [10‐(4‐bromobenzenesulfonyl)‐N‐[(1Z)‐1λ⁴‐thiophen‐1‐ ylidene]‐5‐thia‐1,8,11,12‐ tetraazatricyclo[7.3.0.0 ,⁶]dodeca‐2(6),3,7,9,11‐ pentaen‐7‐amine], the IC50 at Urea transporter 2 is above 50 µM; at Urea transporter 1, 2.8 µM.

`CSc1nc(Nc2ccc(Nc3ccccc3)cc2)nc(SC)n1` [1‐N‐[bis(methylsulfanyl)‐1,3,5‐triazin‐2‐yl]‐4‐N‐ phenylbenzene‐1,4‐diamine]: the IC50 on Urea transporter 2 was 45 µM; against Urea transporter 1, above 50 µM.

On to `COc1cccc(CNC(=O)c2ccc3cccc(O)c3n2)c1` [8‐hydroxy‐N‐[(3‐methoxyphenyl)methyl]quinoline‐2‐carboxamide], for which the IC50 against Urea transporter 1 is above 50 µM.

For the molecule `[H]/N=C1/NC(=O)/C(=C\c2cccc(OC)c2OC)S1` [(5E)‐5‐[(2,3‐dimethoxyphenyl)methylidene]‐2‐imino‐1,3‐thiazolidin‐4‐one], the results for the IC50 at Urea transporter 2 and on Urea transporter 1 were 7 µM and 43 µM, respectively.

`CCc1ccc(S(=O)(=O)c2nnn3c2nc(NCCCOC)c2sccc23)cc1`: the IC50 against Urea transporter 2 was above 50 µM; at Urea transporter 1 it was 28 µM.

For the molecule `COc1cccc(Nc2nc(Nc3ccc(C)cc3)nc(Sc3ccc(C)cc3)n2)c1` [2‐N‐(3‐methoxyphenyl)‐4‐N‐(4‐methylphenyl)‐6‐[(4‐ methylphenyl)sulfanyl]‐1,3,5‐triazine‐2,4‐diamine], the results for the half-maximal inhibitory concentration (IC50) against Urea transporter 2 and on Urea transporter 1 were above 50 µM and 42 µM, respectively.

Turning to `CC(=O)OCCOc1ccccc1/C=C1/SC(=N)NC1=O` [2‐(2‐{[(5E)‐2‐imino‐4‐oxo‐1,3‐thiazolidin‐5‐ ylidene]methyl}phenoxy)ethyl acetate], the half-maximal inhibitory concentration (IC50) at Urea transporter 2 is 3.7 µM; against Urea transporter 1 it was 4.8 µM.

Regarding `COc1cccc2c(Nc3ccc(C)c(Cl)c3)cc(C(=O)N3CCCCC3)nc12` [N‐(3‐chloro‐4‐methylphenyl)‐8‐methoxy‐2‐ (piperidine‐1‐carbonyl)quinolin‐4‐amine], the IC50 against Urea transporter 2 was 24 µM; at Urea transporter 1 it was above 50 µM.

With `COc1cccc2c(Nc3ccc(C)c(F)c3)cc(C(=O)N3CCCCC3)nc12` [N‐(3‐fluoro‐4‐methylphenyl)‐8‐methoxy‐2‐ (piperidine‐1‐carbonyl)quinolin‐4‐amine], the IC50 was 25 µM against Urea transporter 2 and above 50 µM at Urea transporter 1.

As for `Cc1ccc(C)c(S(=O)(=O)c2nnn3c2nc(NC(C)C)c2sccc23)c1`, the IC50 against Urea transporter 2 stood at 3.8 µM; against Urea transporter 1, 15 µM.

Regarding `COc1cccc(/C=C2/SC(=N)NC2=O)c1O` [(5E)‐5‐[(2‐hydroxy‐3‐methoxyphenyl)methylidene]‐2‐ imino‐1,3‐thiazolidin‐4‐one], the IC50 at Urea transporter 2 turned out to be 4.6 µM; against Urea transporter 1 it was 6.3 µM.

For `CCOc1ccc(Nc2cc(C(=O)N3CCSCC3)nc3c(OC)cccc23)cc1` [N‐(4‐ethoxyphenyl)‐8‐methoxy‐2‐(thiomorpholine‐4‐ carbonyl)quinolin‐4‐amine], the IC50 against Urea transporter 2 amounted to 24 µM; at Urea transporter 1, 34 µM.

Turning to `COc1cccc2c(Nc3cccc(SC)c3)cc(C(=O)N3CCCCC3)nc12` [8‐methoxy‐N‐[3‐(methylsulfanyl)phenyl]‐2‐ (piperidine‐1‐carbonyl)quinolin‐4‐amine], the values for the IC50 against Urea transporter 2 and at Urea transporter 1 were 3.8 µM and 20 µM, respectively.

As to `COc1ccc(Nc2cc(C(=O)N3CCSCC3)nc3c(OC)cccc23)cc1Cl` [N‐(3‐chloro‐4‐methoxyphenyl)‐8‐methoxy‐2‐ (thiomorpholine‐4‐carbonyl)quinolin‐4‐amine], the IC50 is 19 µM against Urea transporter 2 and 27 µM at Urea transporter 1.

As to `CNc1nc2c(S(=O)(=O)c3ccccc3)nnn2c2ccsc12` [UT-A1 inhibitor D2], the IC50 against Urea transporter 2 was above 50 µM; on Urea transporter 1, 35 µM.

On to `CCOc1ccc(Nc2cc(C(=O)N3CCCCC3)nc3c(OC)cccc23)cc1` [N‐(4‐ethoxyphenyl)‐8‐methoxy‐2‐(piperidine‐1‐ carbonyl)quinolin‐4‐amine], for which the IC50 against Urea transporter 2 was 3.3 µM; against Urea transporter 1, 16 µM.

As to `COc1cc(/C=C2/SC(=N)NC2=O)ccc1O` [(5E)‐5‐[(4‐hydroxy‐3‐methoxyphenyl)methylidene]‐2‐ imino‐1,3‐thiazolidin‐4‐one], the IC50 stood at 25 µM on Urea transporter 2 and 6.2 µM at Urea transporter 1.

By IC50 is commonly meant the concentration at which inhibition is half-maximal.

The record behind these values is BindingDB's records for doi:10.1016/j.chembiol.2013.08.005 (University of California San Francisco, 2013).
